According to patent US20180333382A1, “PHARMACEUTICAL COMPOSITIONS COMPRISING DGLA AND USE OF SAME” (DS Biopharma Limited, priority 2017, published 2018):

Test system: patients with moderate to severe atopic dermatitis
Assay: Phase II study of oral DS107G vs placebo: IGA, EASI, SCORAD, pruritus VAS, BSA, POEM, DLQI
Assay type: in vivo, human
Set-up: key to EASI, Actual, Median / EASI, Actual, Mean: EASI composite score, range 0-72
Conditions: for Percentage Change of BSA Levels From Baseline, Mean / Percentage Change of DLQI Scores From Baseline, Mean / Percentage Change of EASI Scores From Baseline, Mean / Percentage Change of IGA Scores From Baseline, Mean / Percentage Change of POEM Scores From Baseline, Mean / Percentage Change of SCORAD Levels From Baseline, Mean / Percentage Change of VAS Scores From Baseline, Mean: ITT Population
Description: A randomized, double-blind, placebo-controlled, phase II study was performed to assess the efficacy and safety of orally administered DS107G (DGLA) to patients with moderate to severe atopic dermatitis. The primary objective of the study was to compare the efficacy of orally administered DS107G capsules, versus placebo, in the treatment of adult patients with moderate to severe atopic dermatitis. The secondary objective was to assess the safety of orally administered DS107G capsules, versus placebo, in adult patients with moderate to severe atopic dermatitis. The primary study endpoint was the proportion of patients achieving an IGA (Investigator Global Assessment) of 0 (clear) or 1 (almost clear) and a decrease of at least 2 points in IGA at week 8. Secondary study endpoints included:
Approximately 100 patients with moderate to severe atopic dermatitis were included in this multicenter, double-blind, placebo controlled, phase IIa study. All subjects signed an informed consent and underwent screening for study eligibility. Subjects were randomized (1:1) at baseline visit to either receive oral DS107G 2 g or placebo, once daily for 8 weeks in a fasting state.
Subjects visited the clinic on 6 occasions: at screening, baseline, week 2, week 4, week 8 (end of treatment/early termination) and week 10 (follow-up). All subjects exited the study at the week 10 visit. The primary efficacy variable was the proportion of patients achieving an IGA of 0 (clear) or 1 (almost clear), and a decrease of at least 2 points in IGA at week 8. Secondary efficacy variables included: IGA at other visits, pruritus (obtained from the SCORAD visual analog scale), EASI, BSA, POEM, DLQI, SCORAD and TEWL (for selected sites only). Safety was assessed through adverse events, physical examination, vital signs and safety laboratory tests (including pregnancy tests for women of childbearing potential). Pharmacokinetic samples were obtained at Baseline (Day 0), week 4 and week 8 visits in order to measure total and free DGLA plasma trough levels. Separate plasma samples were retained for later analysis of total fatty acid profile and interleukin profile.
The EASI is a composite score ranging from 0-72 that takes into account the degree of erythema, induration/papulation, excoriation, and lichenification (each scored from 0 to 3 separately) for each of four body regions, with adjustment for the percent of BSA involved for each body region and for the proportion of the body region to the whole body. A detailed procedure of EASI score calculation is provided below.
SCORAD is calculated as follows: Six items (erythema, edema/papulation, oozing/crusts, excoriation, lichenification, and dryness) are selected to evaluate the AD severity. The intensity of each item is graded using a 4-point scale: • 0=No symptoms • 1=Mild • 2=Moderate • 3=Severe
Investigator's global assessment is determined as follows:
Body Surface Area (BSA). The overall BSA affected by AD will be evaluated (from 0 to 100%) at each visit. One patient's palm represents 1% of his/her total BSA. For all study visits, except at screening, the BSA of involved skin will be measured with the SCORAD measurement and evaluated as a separate endpoint.
The Patient-Oriented Eczema Measure (POEM) is determined using the following questionnaire:
The Dermatology Life Quality Index (DLQI) is determined using the following questionnaire:
Subjects who fulfilled all the inclusion and none of the exclusion criteria were accepted in the study. Each subject read and signed an informed consent form prior to any screening procedures being performed. This study involved a comparison of DS107G (DGLA) with placebo, administered orally once daily upon waking for a total duration of 8 weeks. Subjects were randomized to one of the two treatment groups in a 1:1 ratio:
The Investigator's Global Assessment (IGA) of Disease Severity was assessed at each visit. The IGA is a global assessment of the current state of the disease. […]

[1] = DS107 Phase 2a I.T.T. population, daily, 8 weeks
[2] = Table 9A: title Week 4, head Week 8/ET, n=34
[3] = Table 9A: title Week 4, head Week 8/ET, n=35
[4] = Week 8, ITT total population, N=51
[5] = Week 8, ITT, Moderate at baseline
[6] = Week 8, ITT, Very Severe/Severe at baseline
[7] = Week 8/ET, DS107G 2 g once daily, n=35
[8] = total study population, oral, once daily, 8 weeks

## CCCCC/C=C\C/C=C\C/C=C\CCCCCCC(=O)O [DS107G, Dihomo gamma linolenic acid]
African America patients
  patients classified as Responders (IGA 0 or 1 at Week 8, 2-point decrease): 56%
Caucasian patients
  patients classified as Responders (IGA 0 or 1 at Week 8, 2-point decrease): 7%
[1]
  BSA Change from Baseline: −38%
  EASI Percentage Change from Baseline: −46%
  EASI-50 (%): 57%
  EASI-75 (%): 37%
  IGA responder (%): 21%
  Pruritus Percentage Change from Baseline: −41%
Week 2
  Percentage Change of BSA Levels From Baseline, Mean: −6.3%
  Percentage Change of DLQI Scores From Baseline, Mean: −29.5%
  Percentage Change of EASI Scores From Baseline, Mean: −15.0%
  Percentage Change of IGA Scores From Baseline, Mean: −11.7%
  Percentage Change of POEM Scores From Baseline, Mean: −30.2%
  Percentage Change of SCORAD Levels From Baseline, Mean: −12.0%
  Percentage Change of VAS Scores From Baseline, Mean: −20.9%
Week 4
  Percentage Change of BSA Levels From Baseline, Mean: −21.9%
  Percentage Change of DLQI Scores From Baseline, Mean: −50.3%
  Percentage Change of EASI Scores From Baseline, Mean: −37.7%
  Percentage Change of IGA Scores From Baseline, Mean: −25.7%
  Percentage Change of POEM Scores From Baseline, Mean: −41.8%
  Percentage Change of SCORAD Levels From Baseline, Mean: −28.8%
  Percentage Change of VAS Scores From Baseline, Mean: −39.5%
Week 8
  Percentage Change of BSA Levels From Baseline, Mean: −38.2%
  Percentage Change of DLQI Scores From Baseline, Mean: −43.2%
  Percentage Change of EASI Scores From Baseline, Mean: −45.6%
  Percentage Change of IGA Scores From Baseline, Mean: −38.4%
  Percentage Change of POEM Scores From Baseline, Mean: −37.2%
  Percentage Change of SCORAD Levels From Baseline, Mean: −36.1%
  Percentage Change of VAS Scores From Baseline, Mean: −41.0%
Week 10
  Percentage Change of BSA Levels From Baseline, Mean: −37.7%
  Percentage Change of DLQI Scores From Baseline, Mean: −53.6%
  Percentage Change of EASI Scores From Baseline, Mean: −49.5%
  Percentage Change of IGA Scores From Baseline, Mean: −37.5%
  Percentage Change of POEM Scores From Baseline, Mean: −43.4%
  Percentage Change of SCORAD Levels From Baseline, Mean: −40.5%
  Percentage Change of VAS Scores From Baseline, Mean: −44.2%
ITT analysis, p=0.057
  primary end point (two point drop in IGA and end of treatment IGA of 0 or 1) vs placebo: clinically significant trend
[2]
  visual analog scale of pruritus, Change from baseline, LSMEANS: −2.1
  visual analog scale of pruritus, Change from baseline, Mean: −2.8
  visual analog scale of pruritus, Change from baseline, Median: −2.0
  visual analog scale of pruritus, Percent Change from Baseline, Mean: −41.0%
  visual analog scale of pruritus, Percent Change from Baseline, Median: −35.3%
[3]
  visual analog scale of pruritus, Actual, Mean: 4.6
  visual analog scale of pruritus, Actual, Median: 4.0
Table 9B: Week 8/ET, n=34
  visual analog scale of pruritus, Change from baseline, LSMEANS: −2.1
  visual analog scale of pruritus, Change from baseline, Mean: −2.8
  visual analog scale of pruritus, Change from baseline, Median: −2.0
  visual analog scale of pruritus, Percent Change from Baseline, Mean: −41.0%
  visual analog scale of pruritus, Percent Change from Baseline, Median: −35.3%
Table 9B: Week 8/ET, n=35
  visual analog scale of pruritus, Actual, Mean: 4.6
  visual analog scale of pruritus, Actual, Median: 4.0
[4]
  IGA score 0—Clear: 4 ( 7.8) n (%)
  IGA score 1—Almost Clear: 7 ( 13.7) n (%)
  IGA score 2—Mild: 9 ( 17.6) n (%)
  IGA score 3—Moderate: 10 ( 19.6) n (%)
  IGA score 4—Severe: 4 ( 7.8) n (%)
  IGA score 5—Very Severe: 1 ( 2.0) n (%)
  Non-Responders: 37 ( 72.5) n (%)
  Responders (decrease of at least 2 points in IGA score at Week 8): 14 ( 27.5) n (%)
[5]
  IGA score 0—Clear: 4 (13.8) n (%)
  IGA score 1—Almost Clear: 4 (13.8) n (%)
  IGA score 2—Mild: 6 (20.7) n (%)
  IGA score 3—Moderate: 4 (13.8) n (%)
  IGA score 4—Severe: 1 (3.4) n (%)
  IGA score 5—Very Severe: 0 (0.0) n (%)
  Non-Responders: 21 (72.4) n (%)
  Responders: 8 (27.6) n (%)
[6]
  IGA score 0—Clear: 0 (0.0) n (%)
  IGA score 1—Almost Clear: 3 (13.6) n (%)
  IGA score 2—Mild: 3 (13.6) n (%)
  IGA score 3—Moderate: 6 (27.3) n (%)
  IGA score 4—Severe: 3 (13.6) n (%)
  IGA score 5—Very Severe: 1 (4.5) n (%)
  Non-Responders: 16 (72.7) n (%)
  Responders: 6 (27.3) n (%)
[7]
  EASI, Actual, Mean: 9.3
  EASI, Actual, Median: 7.4
  EASI, Change from baseline, LSMEANS (ANCOVA): −8.0
  EASI, Change from baseline, Mean: −9.4
  EASI, Change from baseline, Median: −8.0
  EASI, Percent Change from Baseline, Mean: −45.6%
  EASI, Percent Change from Baseline, Median: −62.7%
Week 8/ET, n=34
  SCORAD, Change from baseline, LSMEANS: −18.7
  SCORAD, Change from baseline, Mean: −21.1
  SCORAD, Change from baseline, Median: −21.2
  SCORAD, Percent Change from Baseline, Mean: −36.1%
  SCORAD, Percent Change from Baseline, Median: −43.4%
Week 8/ET, n=35
  SCORAD, Actual, Mean: 35.9
  SCORAD, Actual, Median: 28.6
  body surface area affected by atopic dermatitis, Actual, Mean: 17.6
  body surface area affected by atopic dermatitis, Actual, Median: 12.0
  body surface area affected by atopic dermatitis, Change from baseline, LSMEANS: −8.9
  body surface area affected by atopic dermatitis, Change from baseline, Mean: −9.6
  body surface area affected by atopic dermatitis, Change from baseline, Median: −8.0
  body surface area affected by atopic dermatitis, Percent Change from Baseline, Mean: −38.2%
  body surface area affected by atopic dermatitis, Percent Change from Baseline, Median: −50.0%
In vivo
  response rate in subjects having low baseline eosinophil counts: higher response rate
Moderate patient subgroup (n=67), p=0.036
  primary end point (two point drop in IGA and end of treatment IGA of 0 or 1) vs placebo: statistically significant improvement
[8]
  EASI (% decrease): 46%
  IGA responders (%): 22%
  Pruritus delta (as measured by VAS): 41%
  Pruritus score decrease (as measured by VAS): c. (2.8)
  SCORAD (% decrease): 36%
Within four weeks of dosing, p=0.015
  pruritus score [visual analog scale] vs placebo: statistically significant reduction of itch
